{"source": "patent US5618818A", "about": "“Muscarinic agonist compounds” (The University of Toledo, priority 1996, dated 1997)", "target": "muscarinic receptors in the rat central nervous system", "assay": "Binding affinity at muscarinic receptors in the rat central nervous system, [^3 H]-QNB IC50", "conditions": "mean from one to three experiments, each in triplicate", "source_text": "Binding affinities and agonist activity in a series of\namidine derivatives at muscarinic receptors in the rat\ncentral nervous system. Data represent the mean from one\nto three experiments, each performed in triplicate.", "note": "Counter-ions that a name gives are not always drawn.", "data": [{"smiles": "CN(C)NC(=O)C1CN=C(N)NC1", "note": "(stereo not shown) [CDD-0126-A, 2-Amino-1,4,5,6-tetrahydropyrimidine-5-carboxylic-(N,N-dimethyl)hydrazide HCl]", "values": [{"measurement": "IC50", "value": 50, "unit": "µM"}]}]}
